Experimental data published in patent publication US20220062240A1, “METHODS OF TREATING CANCER USING A CLK INHIBITOR” (BioSplice Therapeutics, Inc., priority 2018, published 2022).

Key:
[1] = system: nuclear speckles in SW480 cells; experiment: Nuclear speckle staining (phospho-SC35); assay type: cell-based, human; details: SW480, 6 hours, 0.3-10 μM
Method: […]. The cells were stained with a phospho-SC35 antibody (green) and a Hoechst 33342 nuclear stain (blue). Scale bar, 10 μm.
FIG. 9A is a set of representative immunofluorescence images (×100 magnification) of SW480 cells treated with indicated concentrations for 6 hours. The cells were stained with a phospho-SC35 antibody (green) and a Hoechst 33342 nuclear stain (blue). Scale bar, 10 μm.
[…]. After approximately 6 hr, cells were fixed and stained a phospho-SC35 antibody (Santa Cruz Biotechnology). Cells were then labelled with an Alexa-Fluor 488 secondary antibody (Thermo Fisher) containing DAPI (Thermo Fisher). Cells were imaged at 100× magnification.

NCI-N87 = experiment: CellTiter-Blue Cell Viability Assay; assay type: cell-based; details: Homo sapiens, 96 h; NCI-N87, TP53, SMAD4, HER2 amplification, 4 days
Method: (§1) Effect on cell proliferation was performed using the CellTiter-Blue*® viability assay or the CellTiter-Glo© Viability Assay as recommended by the manufacturer (Promega).
(§2) Cells were plated in a black-walled, clear-bottomed 96-well plates with ˜1.5-3.0×10^3 cells/well in appropriate medium containing 10% FBS. […] Fluorescence signal was measured at 560ex/590em nm using the Cytation3 multimodal plate reader (BioTek).

AGS = experiment: CellTiter-Blue Cell Viability Assay; assay type: cell-based; details: Homo sapiens, 96 h, CDH1, CTNNB1, KRAS, PIK3CA, 4 days
Method: as §1, §2

SNU-1 = experiment: CellTiter-Blue Cell Viability Assay; assay type: cell-based; details: Homo sapiens, SNU1, 96 h; SNU-1, KRAS, MLH1, 4 days
Method: as §1, §2

SNU-5 = experiment: CellTiter-Blue Cell Viability Assay; assay type: cell-based; details: Homo sapiens, 96 h; SNU-5, TP53, CDKN2A, CDH1, 4 days
Method: as §1, §2

KATO III = experiment: CellTiter-Blue Cell Viability Assay; assay type: cell-based; details: Homo sapiens, 96 h, TP53, 4 days
Method: as §1, §2

[2] = system: SW480 colorectal cancer cells; experiment: Apoptosis assays (caspase 3/7, cleaved PARP, DNA fragmentation, Survivin, MCL-1); assay type: cell-based, human
Method: Induction of apoptosis or programmed cell death is an important mechanism by which anti-cancer drugs can exert activity.
For apoptosis assays, SW480 cells were plated at 7500 cells/well in a black-walled clear-bottom 96-well plate (Corning). […] After the 48-hour treatment timepoint, CellEvent™ Caspase 3/7 Green Detection Reagent (Thermo Fisher) was incubated at 37° C. for 30 minutes, followed by Hoechst 33342 nuclear staining (Thermo Fisher). Imaging and quantitation was performed using CellInsight™ CX5 high content imager (Thermo Fisher). For each well, the percentage of apoptotic cells was calculated as a ratio of the total number of cells stained positive for CellEvent Caspase 3/7 reagent to the total number of nuclei. Average of the three replicate wells per condition are presented.
(§3) For indicated experiments, cells were pelleted by centrifugation and washed with PBS and protein from the cell pellet was fractionated into cytoplasmic and nuclear fractions using a NE-PER™Nuclear and Cytoplasmic Extraction Reagents kit containing Halt™ protease and phosphatase inhibitors (Thermo Fisher). Protein concentrations of the samples were quantified using the Pierce Micro BCA protein assay kit (Thermo Fisher). […] Primary antibodies were incubated overnight at 4° C., with GAPDH, Lamin B1 or β-actin being used as loading controls (refer to Table 19 for primary antibodies and dilutions used).

MYLK4 = biological target: T1, MYLK4 (Homo sapiens, UniProt Q86YV6); experiment: Kinase IC50 (SelectScreen); assay type: biochemical
T1 construct: purchased ThermoFisher SelectScreen

IRAK1 = biological target: T2, IRAK1 (Homo sapiens, UniProt P51617); experiment: Kinase IC50 (SelectScreen); assay type: biochemical; details: Table 8
T2 construct: purchased ThermoFisher SelectScreen

MAP4K1 (HPK1) = biological target: T3, MAP4K1 (HPK1) (Homo sapiens, UniProt Q92918); experiment: Kinase IC50 (SelectScreen); assay type: biochemical; details: Table 8
T3 construct: purchased ThermoFisher SelectScreen

LRRK2 FL = biological target: T4, LRRK2 FL (Homo sapiens, UniProt Q5S007); experiment: Kinase IC50 (SelectScreen); assay type: biochemical; details: Table 8
T4 construct: LRRK2 FL; purchased ThermoFisher SelectScreen

BMPR1B (ALK6) = biological target: T5, BMPR1B (ALK6) (Homo sapiens, UniProt O00238); experiment: Kinase IC50 (SelectScreen); assay type: biochemical; details: Table 8
T5 construct: purchased ThermoFisher SelectScreen

LRRK2 = biological target: T6, LRRK2 (Homo sapiens, UniProt Q5S007); experiment: Kinase IC50 (SelectScreen); assay type: biochemical; details: Table 8
T6 construct: purchased ThermoFisher SelectScreen

SW480 cells = experiment: Wnt pathway gene (qRT-PCR) and protein (immunoblot) expression; assay type: cell-based, human
Method: Fold-change relative to DMSO is shown (n=3 biological replicates per group, Mean±SD, **P<0.01; ***P<0.001, student's two-tailed t-test).
(§4) FIG. 6D is an immunoblot showing Wnt pathway-related protein expression in SW480 cells treated as indicated for 24 hours. The proteins were separated into nuclear and cytoplasmic fractions. GAPDH and Lamin B1 represent cytoplasmic and nuclear protein loading controls, respectively. The blots are representative of two experiments.
as §4, with “6E” for “6D”, “48” for “24”
The fold-change relative to DMSO is shown (n=3 biological replicates per group, Mean±SD, *P<0.05; **P<0.01; ***P<0.001, student's two-tailed t-test).
FIG. 7C is an immunoblot showing protein expression of hits identified in FIG. 7A. SW480 cells were treated as indicated for 24 hours and proteins were separated into nuclear and cytoplasmic fractions. GAPDH and Lamin B1 represent the cytoplasmic and nuclear protein loading controls, respectively. The blots are representative of two experiments.
as §3
Total RNA was isolated using RNeasy Plus mini kit (Qiagen) or MagMAX Total RNA kit (Thermo Fisher) as per the manufacturers' protocol. cDNA was synthesized using the iScript cDNA Synthesis Kit (Bio-Rad), followed before performing qRT-PCR. Reactions were then run on a real-time PCR system (CFX384; Bio-Rad). Relative gene expression was determined by normalizing to GAPDH using the ΔΔCt method.

[3] = SW480, 24 hours, compared to DMSO

T5 sequence (O00238 14-502): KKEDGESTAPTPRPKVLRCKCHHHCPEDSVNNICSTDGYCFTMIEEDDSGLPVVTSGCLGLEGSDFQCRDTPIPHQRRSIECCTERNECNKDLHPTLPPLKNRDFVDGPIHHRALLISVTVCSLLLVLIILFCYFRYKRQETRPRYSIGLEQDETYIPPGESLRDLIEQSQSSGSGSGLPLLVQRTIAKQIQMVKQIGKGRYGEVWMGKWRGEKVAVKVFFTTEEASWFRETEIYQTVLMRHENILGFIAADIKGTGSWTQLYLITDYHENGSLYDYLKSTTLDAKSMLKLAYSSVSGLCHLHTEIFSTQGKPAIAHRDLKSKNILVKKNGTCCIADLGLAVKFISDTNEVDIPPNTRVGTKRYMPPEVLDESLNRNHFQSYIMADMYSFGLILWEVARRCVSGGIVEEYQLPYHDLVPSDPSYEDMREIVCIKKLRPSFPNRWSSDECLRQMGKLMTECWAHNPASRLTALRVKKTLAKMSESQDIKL
T6 sequence (Q5S007 970-2527 limits assumed): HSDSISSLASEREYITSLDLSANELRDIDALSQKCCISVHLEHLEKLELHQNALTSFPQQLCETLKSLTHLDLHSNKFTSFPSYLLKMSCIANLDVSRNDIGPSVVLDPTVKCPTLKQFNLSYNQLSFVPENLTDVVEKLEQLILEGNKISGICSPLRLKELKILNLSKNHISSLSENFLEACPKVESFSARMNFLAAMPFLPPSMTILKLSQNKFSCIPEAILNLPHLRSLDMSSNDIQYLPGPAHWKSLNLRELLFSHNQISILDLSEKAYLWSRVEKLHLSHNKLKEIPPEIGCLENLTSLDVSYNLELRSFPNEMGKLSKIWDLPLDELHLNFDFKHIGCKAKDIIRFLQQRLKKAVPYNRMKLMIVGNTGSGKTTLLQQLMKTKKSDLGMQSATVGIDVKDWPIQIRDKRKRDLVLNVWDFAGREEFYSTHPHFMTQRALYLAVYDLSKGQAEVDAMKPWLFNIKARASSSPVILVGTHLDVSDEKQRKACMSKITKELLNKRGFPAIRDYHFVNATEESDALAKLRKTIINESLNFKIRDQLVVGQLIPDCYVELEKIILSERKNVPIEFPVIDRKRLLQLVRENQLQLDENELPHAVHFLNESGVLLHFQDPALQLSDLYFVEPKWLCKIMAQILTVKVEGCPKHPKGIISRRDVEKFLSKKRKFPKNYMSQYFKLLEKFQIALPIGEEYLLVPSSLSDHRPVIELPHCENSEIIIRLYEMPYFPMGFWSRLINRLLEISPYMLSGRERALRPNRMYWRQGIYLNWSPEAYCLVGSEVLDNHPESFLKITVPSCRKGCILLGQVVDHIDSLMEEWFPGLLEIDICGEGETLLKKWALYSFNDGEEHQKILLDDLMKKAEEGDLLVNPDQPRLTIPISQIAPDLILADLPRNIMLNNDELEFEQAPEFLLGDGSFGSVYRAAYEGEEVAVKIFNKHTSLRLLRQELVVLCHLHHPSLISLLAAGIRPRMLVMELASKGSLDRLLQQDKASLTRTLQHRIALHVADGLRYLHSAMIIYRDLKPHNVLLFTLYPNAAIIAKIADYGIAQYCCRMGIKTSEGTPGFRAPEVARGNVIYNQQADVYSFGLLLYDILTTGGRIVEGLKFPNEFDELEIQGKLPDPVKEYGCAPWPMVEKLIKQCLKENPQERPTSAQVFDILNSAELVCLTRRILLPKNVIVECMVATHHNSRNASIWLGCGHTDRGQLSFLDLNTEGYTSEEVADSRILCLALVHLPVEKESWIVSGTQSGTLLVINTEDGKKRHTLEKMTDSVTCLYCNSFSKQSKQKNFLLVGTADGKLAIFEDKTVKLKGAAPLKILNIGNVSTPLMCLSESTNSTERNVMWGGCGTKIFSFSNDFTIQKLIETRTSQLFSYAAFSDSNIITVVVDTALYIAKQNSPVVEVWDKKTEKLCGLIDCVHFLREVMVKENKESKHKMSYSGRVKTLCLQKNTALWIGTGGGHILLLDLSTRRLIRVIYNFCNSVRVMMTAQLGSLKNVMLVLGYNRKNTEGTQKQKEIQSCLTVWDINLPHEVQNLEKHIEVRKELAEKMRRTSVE
T2 sequence (P51617 whole entry): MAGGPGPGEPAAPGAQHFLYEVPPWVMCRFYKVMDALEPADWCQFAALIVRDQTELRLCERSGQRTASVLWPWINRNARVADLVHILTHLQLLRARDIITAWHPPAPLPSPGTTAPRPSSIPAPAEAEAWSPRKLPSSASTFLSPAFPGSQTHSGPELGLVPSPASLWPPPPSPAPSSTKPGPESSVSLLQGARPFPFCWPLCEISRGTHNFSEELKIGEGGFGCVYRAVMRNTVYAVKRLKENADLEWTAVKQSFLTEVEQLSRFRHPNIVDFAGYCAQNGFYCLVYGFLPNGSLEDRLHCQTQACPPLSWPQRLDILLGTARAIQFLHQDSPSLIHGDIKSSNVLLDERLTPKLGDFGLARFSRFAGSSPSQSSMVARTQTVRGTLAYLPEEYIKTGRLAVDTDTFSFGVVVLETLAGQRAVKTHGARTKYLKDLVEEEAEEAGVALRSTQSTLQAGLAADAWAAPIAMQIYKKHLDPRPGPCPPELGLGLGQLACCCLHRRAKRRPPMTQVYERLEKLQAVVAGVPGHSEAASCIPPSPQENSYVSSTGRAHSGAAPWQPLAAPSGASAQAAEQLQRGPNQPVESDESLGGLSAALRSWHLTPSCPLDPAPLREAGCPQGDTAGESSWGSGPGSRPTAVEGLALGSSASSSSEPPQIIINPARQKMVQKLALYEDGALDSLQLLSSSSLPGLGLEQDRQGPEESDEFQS
T3 sequence (Q92918 whole entry): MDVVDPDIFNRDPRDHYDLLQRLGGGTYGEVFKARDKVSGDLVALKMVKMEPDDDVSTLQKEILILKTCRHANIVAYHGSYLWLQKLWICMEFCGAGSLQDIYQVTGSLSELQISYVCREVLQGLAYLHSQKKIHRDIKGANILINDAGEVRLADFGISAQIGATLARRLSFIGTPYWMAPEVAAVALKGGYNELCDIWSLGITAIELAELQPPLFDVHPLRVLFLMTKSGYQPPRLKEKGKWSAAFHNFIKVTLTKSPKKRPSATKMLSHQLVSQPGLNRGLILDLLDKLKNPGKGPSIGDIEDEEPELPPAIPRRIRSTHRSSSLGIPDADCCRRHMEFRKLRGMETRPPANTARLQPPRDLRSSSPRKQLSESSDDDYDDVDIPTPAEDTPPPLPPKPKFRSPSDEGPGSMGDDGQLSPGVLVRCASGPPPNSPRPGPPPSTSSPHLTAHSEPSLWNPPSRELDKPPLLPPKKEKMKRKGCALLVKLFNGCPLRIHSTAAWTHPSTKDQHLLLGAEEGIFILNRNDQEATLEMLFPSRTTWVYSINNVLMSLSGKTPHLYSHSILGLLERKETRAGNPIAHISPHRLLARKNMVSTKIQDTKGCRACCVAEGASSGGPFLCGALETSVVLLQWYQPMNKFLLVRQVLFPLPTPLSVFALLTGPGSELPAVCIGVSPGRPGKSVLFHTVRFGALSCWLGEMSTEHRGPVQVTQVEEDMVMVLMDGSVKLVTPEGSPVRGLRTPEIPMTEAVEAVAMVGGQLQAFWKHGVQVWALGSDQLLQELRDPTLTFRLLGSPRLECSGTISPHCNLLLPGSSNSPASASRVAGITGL
T1 sequence (Q86YV6 whole entry): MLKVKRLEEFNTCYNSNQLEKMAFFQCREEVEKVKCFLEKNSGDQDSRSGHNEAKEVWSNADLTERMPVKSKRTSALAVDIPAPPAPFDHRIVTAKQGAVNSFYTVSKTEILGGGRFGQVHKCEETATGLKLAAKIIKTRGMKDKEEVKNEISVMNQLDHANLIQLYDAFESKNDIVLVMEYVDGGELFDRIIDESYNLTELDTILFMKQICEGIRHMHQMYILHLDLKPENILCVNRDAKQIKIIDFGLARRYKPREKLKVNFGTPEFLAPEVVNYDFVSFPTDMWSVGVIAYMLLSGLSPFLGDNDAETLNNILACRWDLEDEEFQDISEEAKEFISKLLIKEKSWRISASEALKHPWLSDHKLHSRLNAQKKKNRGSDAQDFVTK

## CN1CCN(c2cc(C(=O)Nc3cc4cc(-c5cnn(C)c5)ccc4cn3)ccn2)CC1 [Compound 12]
[1]
  enlargement of nuclear speckles: increased enlargement
NCI-N87
  EC50: 17 nM
AGS
  EC50: 185 nM
SNU-1
  EC50: 31 nM
SNU-5
  EC50: 280 nM
KATO III
  EC50: 447 nM
[2]; SW480
  induction of apoptosis (activated caspase 3/7, cleaved PARP, DNA fragmentation): potent inducer of apoptosis
[2]; SW480, 48 hours
  protein expression of Survivin and MCL-1: inhibit
MYLK4
  IC50: 30 nM
IRAK1
  IC50: 20 nM
MAP4K1 (HPK1)
  IC50: 29 nM
LRRK2 FL
  IC50: 19 nM
BMPR1B (ALK6)
  IC50: 33 nM
LRRK2
  IC50: 17 nM
SW480 cells; SW480
  cytoplasmic and nuclear protein levels of β-catenin: unaffected
SW480 cells; SW480, 24 or 48 hours, all tested proteins except β-catenin
  Wnt pathway protein expression in cytoplasmic or nuclear fractions: inhibition of protein expression
SW480 cells; SW480, 24 hours
  FRZB gene expression: Upregulation
  GSK3β gene expression: no effect
  PPP3CC gene expression: inhibitory effect
  gene and protein expression of LRP6: inhibited, but not as potently as LRP5
SW480 cells; [3]
  gene expression of AXIN2, LEF1, MYC, TCF7, CTNNB1 and TCF7L2: dose-dependent decrease
  gene expression of LRP5, DVL2, BTRC, ERRB2, MAPK8, PKN1: significantly downregulated
SW480 cells; SW480, 24 hours, relative to DMSO
  protein expression of LRP5, LRP6, DVL2, β-TrcP and HER2: pronounced dose-dependent inhibition
SW480 cells; SW480, compared to vehicle
  inhibitory effects on MAPK8 and PKN1 protein expression: less profound
